The target in this test is Tyrosine-protein kinase BTK (Homo sapiens, UniProt Q06187). The test can be described thus: Inhibition Assay: Plates assayed are 96-well polypropylene (Greiner) and 96-well 1.2 μm hydrophilic PVDF filter plates (Millipore). Concentrations reported here are final assay concentrations: 10-100 μM compounds in DMSO (Burdick and Jackson), 5-10 nM Btk enzyme (His-tagged, full-length), 30 μM peptide substrate (Biotin-Aca-[…]-NH2), 100 μM ATP (Sigma), 8 mM imidazole (Sigma, pH 7.2), 8 mM glycerol-2-phosphate (Sigma), 200 μM EGTA (Roche Diagnostics), 1 mM MnCl2 (Sigma), 20 mM MgCl2 (Sigma), 0.1 mg/ml BSA (Sigma), 2 mM DTT (Sigma), 1 μCi 33P ATP (Amersham), 20% streptavidin sepharose beads (Amersham), 50 mM EDTA (Gibco), 2 M NaCl (Gibco), 2 M NaCl w/1% phosphoric acid (Gibco), microscint-20 (Perkin Elmer).
Sequence of Tyrosine-protein kinase BTK (Q06187 whole entry): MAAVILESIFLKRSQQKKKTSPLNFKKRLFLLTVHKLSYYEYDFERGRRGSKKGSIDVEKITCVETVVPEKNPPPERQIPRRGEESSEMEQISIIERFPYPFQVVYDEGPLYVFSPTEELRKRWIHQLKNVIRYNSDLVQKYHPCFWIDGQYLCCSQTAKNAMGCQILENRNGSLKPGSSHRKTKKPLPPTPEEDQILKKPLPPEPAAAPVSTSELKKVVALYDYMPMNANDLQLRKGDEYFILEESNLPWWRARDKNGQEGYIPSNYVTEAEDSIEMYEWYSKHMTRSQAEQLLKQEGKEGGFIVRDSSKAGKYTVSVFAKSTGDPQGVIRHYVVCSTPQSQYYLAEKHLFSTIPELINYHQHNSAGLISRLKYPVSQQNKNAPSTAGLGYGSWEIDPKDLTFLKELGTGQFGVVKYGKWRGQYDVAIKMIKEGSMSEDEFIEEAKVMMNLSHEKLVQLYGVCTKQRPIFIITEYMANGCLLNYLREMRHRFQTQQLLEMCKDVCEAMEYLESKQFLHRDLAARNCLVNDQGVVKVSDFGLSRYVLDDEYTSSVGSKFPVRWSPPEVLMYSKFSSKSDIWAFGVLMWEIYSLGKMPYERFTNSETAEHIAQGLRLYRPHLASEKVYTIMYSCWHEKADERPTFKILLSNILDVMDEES

The IC50 is the concentration that inhibits the measured activity by half. Read a high IC50 as a need for much substance. Take `CC(C)(C)c1cc(F)c2c(=O)n(-c3cccc(-n4cc(C(N)=O)c(Nc5ccc(S(C)(=O)=O)cc5)n4)c3CO)ncc2c1`: it took 0.09 nM to reach half-maximal inhibition (IC50). That is a picomolar value.

Values taken from ChEMBL document CHEMBL3639151, “Inhibitors of bruton's tyrosine kinase” (2014).
